The text below walks through data of ChEMBL document CHEMBL3714720, “Inhibiting G-protein coupled receptor 6 kinase polypeptides” (2014).

G protein-coupled receptor kinase 6, sequence (P43250 whole entry): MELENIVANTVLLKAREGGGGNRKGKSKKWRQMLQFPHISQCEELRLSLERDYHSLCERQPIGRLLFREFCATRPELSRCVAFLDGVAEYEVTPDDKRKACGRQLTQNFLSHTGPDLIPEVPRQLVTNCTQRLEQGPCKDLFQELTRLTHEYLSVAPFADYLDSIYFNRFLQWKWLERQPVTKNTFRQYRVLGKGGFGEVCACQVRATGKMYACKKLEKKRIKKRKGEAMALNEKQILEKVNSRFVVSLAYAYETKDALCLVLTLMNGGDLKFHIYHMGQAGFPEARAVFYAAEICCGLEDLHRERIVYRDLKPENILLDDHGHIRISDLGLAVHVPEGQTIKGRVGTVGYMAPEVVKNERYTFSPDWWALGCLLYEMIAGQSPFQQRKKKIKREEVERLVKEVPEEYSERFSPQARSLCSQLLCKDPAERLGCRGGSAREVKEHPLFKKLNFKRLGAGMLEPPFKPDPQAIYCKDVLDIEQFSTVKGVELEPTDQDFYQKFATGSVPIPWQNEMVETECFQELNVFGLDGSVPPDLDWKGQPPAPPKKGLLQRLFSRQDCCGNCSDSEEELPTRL

This test has as its target G protein-coupled receptor kinase 6 (Homo sapiens, UniProt P43250). As to the kind of experiment: Inhibition of human recombinant full-length GST-tagged human GRK6 using peptide substrate peptide-216 incubated for 7 hrs.
As a reminder, the IC50 is the concentration that inhibits the measured activity by half. Regarding `COc1ccc(-c2nnc(SCC(=O)O)[nH]2)c(OC)c1C`, the IC50 is more than 100 µM.
In the case of `COc1ccc(-c2nnc(SCC(=O)O)[nH]2)c(OC)c1OC`, the IC50 was more than 100 µM.
Turning to `Cc1cccc(Oc2ccc(-c3nnc(SCC(=O)O)[nH]3)cc2[N+](=O)[O-])c1`, the IC50 stood at 3.58 µM.
Turning to `O=C(O)CSc1nnc(-c2cccc(C(=O)O)c2)[nH]1`, the IC50 was more than 74 µM.
With `COc1ccc([N+](=O)[O-])cc1-c1nnc(SCC(=O)O)[nH]1` the figure was 77.5 µM.
Consider `COc1c(F)cccc1-c1nnc(SCC(=O)O)[nH]1`, for which the IC50 was more than 100 µM.
With `COc1cc(-c2nnc(SCC(=O)O)[nH]2)cc(F)c1O` the figure was 3.3 µM.
Turning to `O=C(O)CSc1nnc(-c2cc(C(=O)O)ccc2O)[nH]1`, the IC50 is more than 100 µM.
For `COc1cc([N+](=O)[O-])ccc1-c1nnc(SCC(=O)O)[nH]1`, the IC50 is more than 100 µM.
The figure for `O=C(O)CSc1nnc(-c2ccccc2N2CCOCC2)[nH]1` is more than 100 µM; for `COc1ccc(-c2nnc(SCC(=O)O)[nH]2)cc1[N+](=O)[O-]` it is 1.05 µM.
Regarding `COc1cc(O)cc(OC)c1-c1nnc(SCC(=O)O)[nH]1`, the half-inhibitory concentration (IC50) is more than 100 µM.
Turning to `O=C(O)CSc1nnc(-c2cc([N+](=O)[O-])ccc2O)[nH]1`, the IC50 came to 14.1 µM.
Consider `COc1cccc(O)c1-c1nnc(SCC(=O)O)[nH]1`, for which the IC50 is more than 100 µM.
On to `COc1cc(-c2nnc(SCC(=O)O)[nH]2)c([N+](=O)[O-])cc1OC`, for which the concentration for half-maximal inhibition (IC50) was more than 100 µM.
`CC(=O)CSc1nnc(-c2cccc(C)c2)[nH]1`: the IC50 is more than 100 µM.
The figure for `COc1ccc(NC(c2ccccn2)c2ccc3cccnc3c2O)cc1` (centres undefined) is 10.3 µM.
With `O=C(O)CSc1nnc(-c2ccccc2OCCN2CCCC2)[nH]1` the figure was more than 100 µM; with `Cc1ccc(-c2nnc(SCC(=O)O)[nH]2)cc1[N+](=O)[O-]`, 0.751 µM.
Take `Cc1cccc(-c2nnc(SCCC(=O)O)n2C)c1`: the IC50 is more than 100 µM.
On to `CN(C)CCCOc1ccccc1-c1nnc(SCC(=O)O)[nH]1`, for which the concentration for half-maximal inhibition (IC50) was more than 100 µM.
The figure for `COc1ccc(-c2nnc(SCC(=O)O)[nH]2)c(Cl)c1OC` is more than 100 µM; for `COc1cc(-c2nnc(SCC(=O)O)[nH]2)ccc1F` it is 4.52 µM; for `O=C(O)COc1ccccc1-c1nnc(SCC(=O)O)[nH]1` it is more than 100 µM.
Regarding `O=C(O)CSc1nnc(-c2cccc([N+](=O)[O-])c2O)[nH]1`, the IC50 is more than 70 µM.
Turning to `Cc1cccc(-c2n[nH]c(SCC(N)=O)n2)c1`, the IC50 is more than 100 µM.
In the case of `O=C(O)CSc1nnc(-c2ccccc2C(=O)O)[nH]1`, the IC50 was more than 100 µM.
Regarding `NC(=O)c1ccccc1-c1nnc(SCC(=O)O)[nH]1`, the IC50 is more than 100 µM.
Turning to `COc1cccc(OC)c1-c1nnc(SCC(=O)O)[nH]1`, the 50% inhibitory concentration (IC50) was more than 100 µM.
For `CN1CCN(c2ccc(-c3nnc(SCC(=O)O)[nH]3)c(F)c2)CC1`, the IC50 was more than 100 µM.
Turning to `COc1ccc(OC)c(-c2nnc(SCC(=O)O)[nH]2)c1`, the IC50 is more than 100 µM.
For `Cc1cccc(-c2nnc(SCCC(=O)O)[nH]2)c1`, the IC50 is more than 100 µM.
On to `COC(=O)CSc1nnc(-c2cccc(C)c2)[nH]1`, for which the IC50 is more than 100 µM.
The figure for `COC(=O)c1ccccc1-c1nnc(SCC(=O)O)[nH]1` is more than 100 µM.
Consider `Cc1cccc(-c2nnc(SCC(=O)N(C)C)[nH]2)c1`, for which the IC50 was more than 100 µM.
Turning to `Cc1coc(-c2ccccc2NS(=O)(=O)c2ccc(S(=O)(=O)N3CCCCCC3)cc2)c1`, the IC50 was more than 60 µM.
Regarding `CN(C)c1ccc(-c2nnc(SCC(=O)O)[nH]2)cc1`, the IC50 was more than 100 µM.
`Cc1cccc(-c2nnc(SCC(=O)O)n2C)c1`: the IC50 is more than 100 µM.
With `COc1cc(OC)c(-c2nnc(SCC(=O)O)[nH]2)cc1OC` the figure was more than 100 µM; with `COc1cccc(-c2nnc(SCC(=O)O)[nH]2)c1OC`, more than 100 µM; with `COc1cc(N(C)C)ccc1-c1nnc(SCC(=O)O)[nH]1`, more than 100 µM.
On to `Cc1cccc(-c2nnc(SC(C)C(=O)O)n2C)c1` (centres undefined), for which the IC50 is more than 100 µM.
Take `COc1cc([N+](=O)[O-])cc(-c2nnc(SCC(=O)O)[nH]2)c1O`: the IC50 stood at 34.8 µM.
Take `COc1cccc(-c2nnc(SCC(=O)O)[nH]2)c1OCc1ccccc1`: the IC50 is more than 100 µM.
